pIC50: −log10 of the molar value.
How the values were obtained:
CYP11B1 = biological target: T1, CYP11B1 (Homo sapiens, UniProt P15538); experiment: In vitro CYP11B1 inhibition: steroid release from NCI-H295R cells; format: cell-based; conditions: 10 nM compound, read-out: 11B1 % Inhibition @ 10 nM
T1 construct: Thus, the NCl-H295R cells have Cyp11 B1 (steroid 11 p-hydroxylase); host or cells: NCI-H295R
T1 sequence (P15538 25-503): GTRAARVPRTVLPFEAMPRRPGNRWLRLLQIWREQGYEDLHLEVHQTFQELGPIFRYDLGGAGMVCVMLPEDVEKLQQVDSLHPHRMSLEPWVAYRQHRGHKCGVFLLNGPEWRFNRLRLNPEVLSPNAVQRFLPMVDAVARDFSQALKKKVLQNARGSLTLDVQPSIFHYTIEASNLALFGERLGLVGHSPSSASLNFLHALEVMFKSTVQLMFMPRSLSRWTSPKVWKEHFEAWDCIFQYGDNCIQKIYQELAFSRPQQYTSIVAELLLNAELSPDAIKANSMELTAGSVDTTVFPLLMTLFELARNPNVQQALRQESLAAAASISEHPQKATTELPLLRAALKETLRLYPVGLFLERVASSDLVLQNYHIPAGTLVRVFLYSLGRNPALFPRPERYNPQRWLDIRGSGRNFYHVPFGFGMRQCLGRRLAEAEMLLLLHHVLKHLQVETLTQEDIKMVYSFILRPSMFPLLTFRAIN
Text: The in vitro inhibitory activities for CYP11B1 can be determined by the following assay.
The cell line NCI-H295R was originally isolated from an adrenocortical carcinoma and has been characterized in the literature through the stimulable secretion of steroid hormones and the presence of the enymes essential for steroidogenesis. Thus, the NCl-H295R cells have Cyp11 B1 (steroid 11 p-hydroxylase). The cells show the physiological property of zonally undifferentiated human foetal adrenocortical cells which, however, have the capacity to produce the steroid hormones which are formed in the three, phenotypically distinguishable zones in the adult adrenal cortex. […]
The excretion of aldosterone, cortisol, corticosterone and estradiol/estrone into the culture medium can be detected and quantified by commercially available, specific monoclonal antibodies in radioimmunoassays in accordance with the manufacturer's instructions.
Inhibition of the release of certain steroids can be used as a measure of the respective enzyme inhibition by the added test compounds. The dose-dependent inhibition of enzymic activity by a compound is calculated by means of an inhibition plot which is characterized by an IC50. […]

aldosterone synthase = biological target: T2, aldosterone synthase (Homo sapiens, UniProt P19099); experiment: In vitro aldosterone synthase inhibition: aldosterone production in Ang II-stimulated NCI-H295R cells; format: cell-based; conditions: read-out: AS IC50
T2 construct: host or cells: NCI-H295R
T2 sequence (P19099 25-503): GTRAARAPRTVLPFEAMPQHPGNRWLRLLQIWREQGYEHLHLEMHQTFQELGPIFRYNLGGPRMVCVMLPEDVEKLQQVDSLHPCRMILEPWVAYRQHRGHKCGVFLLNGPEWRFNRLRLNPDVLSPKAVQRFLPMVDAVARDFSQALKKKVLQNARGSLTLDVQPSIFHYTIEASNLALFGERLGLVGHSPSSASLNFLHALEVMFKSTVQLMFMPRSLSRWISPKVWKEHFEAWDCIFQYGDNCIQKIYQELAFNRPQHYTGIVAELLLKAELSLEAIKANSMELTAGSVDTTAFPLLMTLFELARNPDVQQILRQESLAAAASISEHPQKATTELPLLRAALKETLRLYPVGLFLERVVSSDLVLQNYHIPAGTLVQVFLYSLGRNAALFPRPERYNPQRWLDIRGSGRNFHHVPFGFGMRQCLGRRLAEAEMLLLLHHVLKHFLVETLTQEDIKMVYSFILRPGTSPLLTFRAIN
Text: In particular, the aldosterone synthase inhibitory activities in vitro can be determined by the following assay.
Human adrenocortical carcinoma NCI-H295R cell line is obtained from American Type Culture Collection (Manassas, Va.). Insulin/transferrin/selenium (ITS)-A supplement (100×), DMEM/F-12, antibiotic/antimycotic (100×), and fetal calf serum (FCS) are purchased from Gibco (Grand Island, N.Y.). Anti-mouse PVT scintillation proximity assay (SPA) beads and NBS 96-well plates are obtained from Amersham (Piscataway, N.J.) and Corning (Acton, Mass.), respectively. Solid black 96-well flat bottom plates were purchased from Costar (Corning; NY). Aldosterone and angiotensin (Ang II) are purchased from Sigma (St. Louis, Mo.). D[1,2,6,7-^3H(N)]aldosterone was acquired from PerkinElmer (Boston, Mass.). Nu-serum was a product of BD Biosciences (Franklin Lakes, N.J.). The NADPH regenerating system, dibenzylfluorescein (DBF), and human aromatase Supersomes® are obtained from Gentest (Woburn, Mass.). […]
Measurement of aldosterone activity can also be performed using a 96-well plate format. […] The amount of aldosterone in each sample is calculated by comparing with a standard curve generated using known quantities of the hormone.

inhibition at 0.01 µM (CYP11B1) [%]	pIC50 (aldosterone synthase)	Compound
100	–	CCC1(c2ccc(C#N)cc2F)C(=O)N(Cc2ccc(F)cc2)Cc2cncn21 (stereo not drawn) [Compound 7, 4-[5-Ethyl-7-(4-fluoro-benzyl)-6-oxo-5,6,7,8-tetrahydro-imidazo[1,5-a]pyrazin-5-yl]-3-fluoro-benzonitrile]
98	–	CCC1(c2ccc(C)cc2OC)C(=O)N(Cc2ccc(F)cc2)Cc2cncn21 (stereo not drawn) [Compound 8, 5-(2-Methoxy-4-methyl-phenyl)-5-ethyl-7-(4-fluoro-benzyl)-7,8-dihydro-imidazo[1,5-a]pyrazin-6-one]
–	7.92	CCC1(c2ccc(C#N)cc2OC)C(=O)N(Cc2ccc(Cl)cc2)Cc2cncn21 (stereo not drawn) [Compound 1, 4-[7-(4-Chloro-benzyl)-5-ethyl-6-oxo-5,6,7,8-tetrahydro-imidazo[1,5-a]pyrazin-5-yl]-3-methoxy-benzonitrile]
